# Assay results: patent publication US20100105664A1, “ORGANIC COMPOUNDS” (priority 2006, published 2010)
# Where a name gives a salt, the structure may show the parent alone.
# Biological target: T1, human MK2 (Homo sapiens, UniProt P49137)
# T1 construct: made in house
# Assay: MAPKAPK2 (or MK2) Kinase Assay
# Format: biochemical
# Settings: activated MAPKAPK2, Hsp27 peptide substrate, 5 μM ATP, TR-FRET
# Experimental: MAPKAPK2 (or MK2) Kinase Assay
# MAPAPK2 is pre-activated in kinase buffer (25 mM TRIS-HCL, pH 7.5, 25 mM beta-glycerophosphate, 0.1 mM sodium orthovanadate, 25 mM MgCl2, 20 μM DTT) containing 5 μM ATP, 150 μg/ml human MK2 (HPLC purified in house), 30 μg/ml active human p38α (HPLC purified in house) for 30 min at 22° C. For the measurement of compound inhibition on activated MAPAPK2, each reaction contained test compound (10 μl; 0.5% DMSO final) or vehicle control, 250 nM Hsp27 peptide biotinyl-AYSRALSRQLSSGVSEIR—COOH as substrate (10 μl) and pre-activated MAPKAP2 kinase mix (10 μl) containing ATP (5 μM final). To define non-specific, reactions are performed in the absence of substrate. Following incubation at 22° C. for 45 min, kinase reactions are terminated with 125 μM EDTA (10 μl). Samples (10 μl) are transferred to black low volume 384-well plates (Greiner) prior to the detection of phosphorylated substrate by time-resolved fluorescence resonance energy transfer (TR-FRET). Phosphorylated Hsp27 is measured using an antibody mix (10 μl) containing a rabbit anti-phospho-Hsp27 (Ser^82) antibody (2.5 nM, Upstate) in conjunction with an anti-rabbit europium-labeled secondary antibody LANCE Eu-W1024 (2.5 nM; Perkin Elmer) as fluorescence donor along with streptavidin SureLight-APC (6.25 nM; Perkin Elmer) as a fluorescence acceptor. Following incubation at 22° C. for 90 min, plates are measured at 615 and 665 nm using a PHERAstar (BMG Labtech). The 615/665 nm ratio is determined following subtraction of background. Values are expressed as % inhibition using control values. Individual IC50 values of compounds are determined by nonlinear regression after fitting of curves to the experimental data using Excel XL fit 4.0 (Microsoft).
# For a number of compounds being identified by their example No. the efficacy is disclosed as being assessable by the above described MK2 kinase assay: […]
# T1 sequence (P49137 whole entry): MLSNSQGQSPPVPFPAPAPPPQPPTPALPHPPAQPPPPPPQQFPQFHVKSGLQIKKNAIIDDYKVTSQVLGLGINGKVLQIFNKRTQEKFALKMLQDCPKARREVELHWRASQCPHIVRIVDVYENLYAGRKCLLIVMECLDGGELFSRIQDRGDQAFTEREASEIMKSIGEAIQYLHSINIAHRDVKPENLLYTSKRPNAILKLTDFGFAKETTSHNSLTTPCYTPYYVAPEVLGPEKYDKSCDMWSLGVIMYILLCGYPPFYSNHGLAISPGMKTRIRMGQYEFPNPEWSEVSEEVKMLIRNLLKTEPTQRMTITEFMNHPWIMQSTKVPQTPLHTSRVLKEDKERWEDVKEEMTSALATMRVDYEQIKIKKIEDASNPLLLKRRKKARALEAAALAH
row,SMILES,IC50 [nM]
1,"NC(=O)c1cc(-c2ccnc(/C=C/c3ccc(F)cc3)c2)[nH]c1N1CCNCC1 [Example 9, 5-{2-[(E)-2-(4-Fluoro-phenyl)-vinyl]-pyridin-4-yl}-2-piperazin-1-yl-1H-pyrrole-3-carboxylic acid amide]",130
2,"NC(=O)c1cc(-c2ccnc(-c3ccc(C(=O)NC4CCCC4)cc3)c2)[nH]c1N1CCNCC1 [Example 55, 5-[2-(4-Cyclopentylcarbamoyl-phenyl)-pyridin-4-yl]-2-piperazin-1-yl-1H-pyrrole-3-carboxylic acid amide]",260
3,"N#Cc1cc(-c2ccnc(/C=C/c3ccc(C(=O)N4CCOCC4)cc3)c2)[nH]c1N1CCNCC1 [Example 75, 5-(2-{(E)-2-[4-(Morpholine-4-carbonyl)-phenyl]-vinyl}-pyridin-4-yl)-2-piperazin-1-yl-1H-pyrrole-3-carbonitrile]",150
4,"NC(=O)c1cc(-c2ccnc(/C=C/c3cccnc3)c2)[nH]c1N1CCNCC1 [Example 81, 2-Piperazin-1-yl-5-[2-((E)-2-pyridin-3-yl-vinyl)-pyridin-4-yl]-1H-pyrrole-3-carboxylic acid amide]",140
5,"NC(=O)c1cc(-c2ccnc(-c3ccc(N4CCCCC4)nc3)c2)[nH]c1N1CCNCC1 [Example 109, 2-Piperazin-1-yl-5-(3,4,5,6-tetrahydro-2H-[1,2′;5′,2″]terpyridin-4″-yl)-1H-pyrrole-3-carboxylic acid amide]",160
6,"CN1CCN(c2ccc(-c3cc(-c4cc(C(N)=O)c(N5CCNCC5)[nH]4)ccn3)cn2)CC1 [Example 110, 5-[6′-(4-Methyl-piperazin-1-yl)-[2,3′]bipyridinyl-4-yl]-2-piperazin-1-yl-1H-pyrrole-3-carboxylic acid amide]",150
7,"NC(=O)c1cc(-c2ccnc(-c3ccc(N4CCN(Cc5ccccc5)CC4)nc3)c2)[nH]c1N1CCNCC1 [Example 116, 5-[6′-(4-Benzyl-piperazin-1-yl)-[2,3′]bipyridinyl-4-yl]-2-piperazin-1-yl-1H-pyrrole-3-carboxylic acid amide]",200
8,"Cc1[nH]c(-c2ccnc(/C=C/c3ccc(CN4CCOCC4)cc3)c2)cc1C#N [Example 131, 2-Methyl-5-{2-[(E)-2-(4-morpholin-4-ylmethyl-phenyl)-vinyl]-pyridin-4-yl}-1H-pyrrole-3-carbonitrile]",290
9,"N#Cc1cc(-c2ccnc(/C=C/c3ccccc3)c2)[nH]c1C1CCNCC1 [Example 144, 2-Piperidin-4-yl-5-[2-((E)-styryl)-pyridin-4-yl]-1H-pyrrole-3-carbonitrile]",210
10,"N#Cc1cc(-c2ccnc(/C=C/c3ccccc3)c2)[nH]c1CCN [Example 148, 2-(2-Amino-ethyl)-5-[2-((E)-styryl)-pyridin-4-yl]-1H-pyrrole-3-carbonitrile]",150
11,"NC(=O)c1cc(-c2ccnc(/C=C/c3ccccc3)c2)[nH]c1C1=CCNCC1 [Example 170, 5-[2-((E)-Styryl)-pyridin-4-yl]-2-(1,2,3,6-tetrahydro-pyridin-4-yl)-1H-pyrrole-3-carboxylic acid amide]",270

# Stronger by IC50, values ahead:
row,IC50 [nM],SMILES
1,120,"NC(=O)c1cc(-c2ccnc(/C=C/c3ccccc3)c2)[nH]c1N1CCNCC1 [Example 14, 2-Piperazin-1-yl-5-[2-((E)-styryl)-pyridin-4-yl]-1H-pyrrole-3-carboxylic acid amide]"
2,50,"NC(=O)c1cc(-c2ccnc(-c3ccc(S(=O)(=O)N4CCOCC4)cc3)c2)[nH]c1N1CCNCC1 [Example 51, 5-{2-[4-(Morpholine-4-sulfonyl)-phenyl]-pyridin-4-yl}-2-piperazin-1-yl-1H-pyrrole-3-carboxylic acid amide]"
3,100,"NC(=O)c1cc(-c2ccnc(/C=C/c3ccc(CN4CCOCC4)cc3)c2)[nH]c1N1CCNCC1 [Example 72, 5-{2-[(E)-2-(4-Morpholin-4-ylmethyl-phenyl)-vinyl]-pyridin-4-yl}-2-piperazin-1-yl-1H-pyrrole-3-carboxylic acid amide hydrobromide]"
4,90,"NC(=O)c1cc(-c2ccnc(Nc3cccc(S(=O)(=O)N4CCOCC4)c3)c2)[nH]c1N1CCNCC1 [Example 93, 5-{2-[3-(Morpholine-4-sulfonyl)-phenylamino]-pyridin-4-yl}-2-piperazin-1-yl-1H-pyrrole-3-carboxylic acid amide]"
5,70,"CN1CCC(Oc2ccc(-c3cc(-c4cc(C#N)c(N5CCNCC5)[nH]4)ccn3)cn2)CC1 [Example 105, 5-[6′-(1-Methyl-piperidin-4-yloxy)-[2,3′]bipyridinyl-4-yl]-2-piperazin-1-yl-1H-pyrrole-3-carbonitrile trifluoroacetate]"
6,70,"N#Cc1cc(-c2ccnc(-c3cnc(N4CCCOCC4)nc3)c2)[nH]c1N1CCNCC1 [Example 118, 5-[2-(2-[1,4]Oxazepan-4-yl-pyrimidin-5-yl)-pyridin-4-yl]-2-piperazin-1-yl-1H-pyrrole-3-carbonitrile trifluoroacetate]"
7,80,"NCCc1[nH]c(-c2ccnc(/C=C/c3ccccc3)c2)cc1C(=O)O [Example 155, 2-(2-Amino-ethyl)-5-[2-((E)-styryl)-pyridin-4-yl]-1H-pyrrole-3-carboxylic acid]"
